IC50, EC50 and melting point data for nine compounds are collected here from patent publication US20230202989A1, “COMPOUNDS” (JANSSEN PHARMACEUTICA NV, priority 2020, published 2023).

In one series the test system is IL-1β. In words: PBMC assay: inhibition of IL-1β release after LPS stimulation (MSD). The settings on record: PBMC, human PBMCs, 100 ng/ml LPS for 6 hrs, MSD, 96 well plates, read-out: IL1β IC50. In kind it is cell-based. Put shortly:
(§1)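 Cryopreserved human PBMCs (7.5×10^4/well) in RPMI/10% FBS were preincubated with serially diluted compound for 30 min at 37 °C, then stimulated with 100 ng/ml LPS for 6 h. Supernatant IL-1β and TNF measured by MSD. IC50 derived for IL-1β, EC50 for TNF.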

Another series concerns TNF. The series is described as follows: PBMC assay: TNF cytokine levels after LPS stimulation (MSD). In kind it is cell-based. The settings on record: PBMC, human PBMCs, 100 ng/ml LPS for 6 hrs. Put shortly: as §1

Molecules are shown by their SMILES. Where two headings read alike, the source gives them in different places. Some results are limits rather than exact numbers.

For orientation: IC50 means the concentration at which inhibition is half-maximal. By EC50 is commonly meant the midpoint of the concentration-response curve. Higher therefore signals weaker potency. By melting point is commonly meant the temperature, or range, at which the solid turns liquid. As to `CC(C)c1nn(CC(=O)Nc2ccc3nncn3n2)c(=O)c2ccc(C(F)(F)F)cc12` [Final Cpd X2, N-([1,2,4]triazolo[4,3-b]pyridazin-6-yl)-2-(4-isopropyl-1-oxo-6-(trifluoromethyl)phthalazin-2(1H)-yl)acetamide], the melting point is 246.08 °C. Also, the concentration for half-maximal inhibition (IC50) with IL-1β (Homo sapiens, 6 h) is 30 nM. This compound gave a concentration giving a half-maximal response (EC50) in the series on TNF (Homo sapiens, 6 h) of 5580 nM.

For the compound `CC(C)c1nn(CC(=O)Nc2ccc3nc[nH]c3n2)c(=O)c2ccc(C(F)(F)F)cc12` [Final Cpd X13], the melting point turned out to be 295.46 °C. In addition, the IC50 with IL-1β (Homo sapiens, 6 h) was 114 nM. Besides, the EC50 in the series with TNF (Homo sapiens, 6 h) is greater than 20000 nM.

Take `CC(C)c1nn(CC(=O)Nc2ccc3nccn3n2)c(=O)c2ccc(C(F)(F)F)cc12` [Final Cpd X16]: the melting point is 238.55 °C. Further, in the series with IL-1β (Homo sapiens, 6 h), the half-maximal inhibitory concentration (IC50) is 137 nM. Further, the 50% effective concentration (EC50) with TNF (Homo sapiens, 6 h) is greater than 20000 nM.

`CCN1CC[C@@H](O)[C@@H](NC(=O)Cn2nc(C3CC3)c3cc(C(F)(F)F)ccc3c2=O)C1` [Final Cpd X19] yielded a melting point of 178.86 °C. In addition, the half-maximal inhibitory concentration (IC50) in the series with IL-1β (Homo sapiens, 6 h) came out at 161 nM. This compound also registered a 50% effective concentration (EC50) in the series with TNF (Homo sapiens, 6 h) greater than 20000 nM.

`CC(C)c1nn(CC(=O)Nc2ccc3cncn3c2)c(=O)c2ccc(C(F)(F)F)cc12` [Final Cpd X20] returned a melting point of 222.09 °C. In addition, the IC50 in the series with IL-1β (Homo sapiens, 6 h) stood at 164 nM. This compound displayed a concentration for a half-maximal effect (EC50) in the series with TNF (Homo sapiens, 6 h) of 15500 nM.

`CC(C)c1nn(CC(=O)Nc2cc(F)[nH]c(=O)c2)c(=O)c2ccc(C(F)(F)F)cc12` [Final Cpd X22] came in with a melting point of 232.18 °C. The IC50 in the series with IL-1β (Homo sapiens, 6 h) turned out to be 170 nM. In the series with TNF (Homo sapiens, 6 h), this compound registered a concentration giving a half-maximal response (EC50) greater than 20000 nM.

Compound `O=C(Cn1nc(C2CC2)c2cc(C(F)(F)F)ccc2c1=O)Nc1ccc2nncn2c1` [Final Cpd X23] returned a melting point of 294.49 °C. Besides, the IC50 in the series on IL-1β (Homo sapiens, 6 h) worked out at 172 nM. For the same compound, the EC50 with TNF (Homo sapiens, 6 h) is greater than 20000 nM.

In turn, `CC(C)c1nn(CC(=O)Nc2ccn3ncnc3c2)c(=O)c2ccc(C(F)(F)F)cc12` [Final Cpd X90] yielded a melting point of 215.56 °C. Besides, the IC50 in the series with IL-1β (Homo sapiens, 6 h) came to 936 nM. The compound further showed a half-maximal effective concentration (EC50) in the series with TNF (Homo sapiens, 6 h) greater than 20000 nM.

Regarding `CC[C@]1(O)C[C@@H](NC(=O)Cn2nc(C(C)C)c3cc(Br)ccc3c2=O)C1` [X-1090, 2-(6-bromo-4-isopropyl-1-oxophthalazin-2(1H)-yl)-N-((1r,3s)-3-ethyl-3-hydroxycyclobutyl)acetamide], the IC50 in the series with IL-1β stood at 122 nM. The EC50 in the series on TNF is greater than 20000 nM.
